How the values were obtained:
[1] = tested on: NKM-1 (Acute Myeloid Leukemia); test: combination Emax (second highest fraction inhibited in the dose matrix, 72 h); higher = more inhibition; extreme values may be limits of the assay
Method in brief: (§1)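 Cell lines in DMEM/F12 or RPMI with 10% FBS were plated in 1536-well plates, held 24 hours at 37°C, 5% CO2, then given two-drug dose matrices for 72 hours (DMSO typically 0.2%). Viability was read by CellTiter-Glo 2.0 luminescence and scaled as inhibition from 0 (vehicle wells) to 1 (blank wells). Combination Emax is the second-highest inhibition in the matrix; Bliss excess is observed combination effect minus expected EA + EB − EA·EB, EA and EB being single-agent effects.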

[2] = tested on: SW684 (Other Solid Carcinomas); test: Bliss excess, mean over the matrix (fraction); higher = more synergy
Method in brief: as §1

[3] = tested on: NCI-H810 (Non-Small Cell Lung Carcinoma); test: as above
Method in brief: as §1

RT4 (Bladder Carcinoma) = test: as above
Method in brief: as §1

[4] = tested on: HTC-C3 (Thyroid Gland Carcinoma); test: as above
Method in brief: as §1

[5] = tested on: SNU-175 (Colorectal Carcinoma); test: as above
Method in brief: as §1

[6] = tested on: Caov-3 (Ovarian Carcinoma); test: as above
Method in brief: as §1

[7] = tested on: RMG-I (Ovarian Carcinoma); test: as above
Method in brief: as §1

[8] = tested on: LOUCY (T-Lymphoblastic Leukemia); test: as above
Method in brief: as §1

786-0 (Kidney Carcinoma) = test: as above
Method in brief: as §1

[9] = tested on: BALL-1 (B-Lymphoblastic Leukemia); test: as above
Method in brief: as §1

[10] = tested on: PANC-02-03 (Pancreatic Carcinoma); test: as above
Method in brief: as §1

[11] = tested on: NKM-1 (Acute Myeloid Leukemia); test: as above
Method in brief: as §1

[12] = tested on: PC-14 (Lung Adenocarcinoma); test: as above
Method in brief: as §1

[13] = tested on: RL95-2 (Endometrial Carcinoma); test: combination Emax (second highest fraction inhibited in the dose matrix, 72 h); higher = more inhibition; extreme values may be limits of the assay
Method in brief: as §1

[14] = tested on: OCI-AML5 (Acute Myeloid Leukemia); test: Bliss excess, mean over the matrix (fraction); higher = more synergy
Method in brief: as §1

[15] = tested on: AN3-CA (Endometrial Carcinoma); test: as above
Method in brief: as §1

[16] = tested on: NCI-H1563 (Lung Adenocarcinoma); test: as above
Method in brief: as §1

ES-2 (Ovarian Carcinoma) = test: as above
Method in brief: as §1

[17] = tested on: RERF-LC-KJ (Lung Adenocarcinoma); test: as above
Method in brief: as §1
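Wherever Bliss excess, mean over the matrix is given: after 72 h of two-drug dosing.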

Compound	combination Emax [1]	Bliss excess [2]	Bliss excess [3]	Bliss excess (RT4 (Bladder Carcinoma))	Bliss excess [4]	Bliss excess [5]	Bliss excess [6]	Bliss excess [7]	Bliss excess [8]	Bliss excess (786-0 (Kidney Carcinoma))	Bliss excess [9]	Bliss excess [10]	Bliss excess [11]	Bliss excess [12]	combination Emax [13]	Bliss excess [14]	Bliss excess [15]	Bliss excess [16]	Bliss excess (ES-2 (Ovarian Carcinoma))	Bliss excess [17]
CCc1c2c(nc3ccc(O)cc13)-c1cc3c(c(=O)n1C2)COC(=O)[C@]3(O)CC [SN-38] + O=C(c1cc(Cc2n[nH]c(=O)c3ccccc23)ccc1F)N1CCN(C(=O)C2CC2)CC1 [Olaparib] (first compound max 0.3 µM, 7x7, partner max 10 µM)	0.987	-0.0048	0.107	0.0702	0.0591	0.0238	0.0886	0.0057	0.0204	0.0937	0.0629	0.0609	0.0274	0.0707						
NC1(C(=O)N[C@@H](CCO)c2ccc(Cl)cc2)CCN(c2ncnc3[nH]ccc23)CC1 [Capivasertib] + C[C@@H]1COCCN1C2=NC(=NC(=C2)C3(CC3)[S@](=N)(=O)C)C4=C5C=CNC5=NC=C4 [AZD6738] (first compound max 10 µM, 7x7, partner max 10 µM)	0.933	-0.0465	-0.0575	-0.022	-0.0323	-0.0099		-0.0371	-0.0482	-0.0708	-0.0066	-0.004	-0.0479	-0.0355	0.886	-0.017	-0.0526	-0.0357	-0.0716	-0.0722
COc1nnc2ccc(N3CCC(c4ccc(OCCN5CCN(C)C(=O)[C@H]5C)cc4)CC3)nn12 [AZD5153] + C[C@@H]1COCCN1C2=NC(=NC(=C2)C3(CC3)[S@](=N)(=O)C)C4=C5C=CNC5=NC=C4 [AZD6738] (first compound max 1 µM, 7x7, partner max 10 µM)	0.98	-0.042	-0.0236	0.0449	-0.0187	0.0289		-0.0261	-0.0232	0.0479	0.0119	-0.0366	-0.0373	0.0294	0.733	0.0158	-0.0311	0.0203	0.0316	0.0393
COc1cc2ncnc(Nc3ccc(F)c(Cl)c3)c2cc1OCCCN1CCOCC1 [Gefitinib] + CC(C)n1c(=O)n(C)c2cnc3cc(F)c(-c4ccc(OCCCN5CCCCC5)nc4)cc3c21 [AZD1390] (first compound max 10 µM, 7x7, partner max 0.3 µM)	0.167	-0.0557	-0.0863	-0.176	-0.0976	-0.0457		-0.0346	0.0024	-0.0652	-0.07	-0.0431	-0.0581	-0.0565	0.0606	-0.051	-0.0592	-0.0757	-0.0989	-0.0807
COc1nnc2ccc(N3CCC(c4ccc(OCCN5CCN(C)C(=O)[C@H]5C)cc4)CC3)nn12 [AZD5153] + Cc1c2c(nn1C)CSCc1cc(n(C)n1)CSc1cc(c3ccccc3c1)OCCCc1c(C(=O)O)n(C)c3c-2c(Cl)ccc13 [AZD5991] (first compound max 1 µM, 7x7, partner max 1 µM)	1	-0.108	0.0448	0.0009	-0.0441	0.0113		-0.0553	0.0187	-0.0166	-0.0409	-0.0493	-0.0491	-0.0145	0.928	0.134	-0.0205	0.0341	-0.0534	0.006
COc1nnc2ccc(N3CCC(c4ccc(OCCN5CCN(C)C(=O)[C@H]5C)cc4)CC3)nn12 [AZD5153] + C=CCn1c(=O)c2cnc(Nc3ccc(N4CCN(C)CC4)cc3)nc2n1-c1cccc(C(C)(C)O)n1 [AZD1775] (first compound max 1 µM, partner max 1 µM)	0.904	-0.054	-0.0578	-0.0064	-0.033	-0.0647		-0.0187	-0.0527	-0.0163	-0.0234	-0.0823	-0.124	-0.0488	0.621	-0.0106	-0.0624	0.0474	-0.0435	-0.0224
NC1(C(=O)N[C@@H](CCO)c2ccc(Cl)cc2)CCN(c2ncnc3[nH]ccc23)CC1 [Capivasertib] + CCN(CCO)CCCOc1ccc2c(Nc3cc(CC(=O)Nc4cccc(F)c4)[nH]n3)ncnc2c1 [AZD2811] (first compound max 10 µM, 7x7, partner max 1 µM)	0.779	-0.0532	-0.0195	-0.0039	-0.015	0.0058		-0.0214	-0.104	-0.0352	0.0356	-0.0261	-0.0299	0.028	1	-0.0465	0.0151	0.0242	-0.0018	-0.0135
Cc1nc(Nc2ncc(C(=O)Nc3c(C)cccc3Cl)s2)cc(N2CCN(CCO)CC2)n1 [Dasatinib] + CC(=O)Nc1cccc(-n2c(=O)n(C3CC3)c(=O)c3c(Nc4ccc(I)cc4F)n(C)c(=O)c(C)c32)c1 [Trametinib] (first compound max 2 µM, 7x7, partner max 1 µM)	0.899	0.0004	-0.0565	-0.0057	-0.0093	-0.0992		-0.0276	0.0286	-0.0592	-0.0108	0.0762	-0.0196	0.0079	0.405	-0.0515	-0.168	-0.111	0.0522	-0.0295
Cn1cnc2c(F)c(Nc3ccc(Br)cc3Cl)c(C(=O)NOCCO)cc21 [Selumetinib] + CCN(CCO)CCCOc1ccc2c(Nc3cc(CC(=O)Nc4cccc(F)c4)[nH]n3)ncnc2c1 [AZD2811] (first compound max 10 µM, 7x7, partner max 1 µM)	0.758	-0.036	-0.037	-0.0816	-0.0228	-0.0253		-0.0385	-0.0979	-0.0344	0.0638	-0.0144	-0.0376	0.0372	0.87	-0.0225	0.0242	0.0102	-0.0322	-0.003
CC(=O)c1c(C)c2cnc(Nc3ccc(N4CCNCC4)cn3)nc2n(C2CCCC2)c1=O [Palbociclib] + Cc1c2c(nn1C)CSCc1cc(n(C)n1)CSc1cc(c3ccccc3c1)OCCCc1c(C(=O)O)n(C)c3c-2c(Cl)ccc13 [AZD5991] (first compound max 10 µM, 7x7, partner max 1 µM)	0.994	-0.0906	-0.0444	-0.0244	0.0082	-0.0496		-0.061	0.0154	0.0201	-0.0683	-0.0522	-0.0003	-0.0106	0.939	0.0572	-0.0305	-0.098	-0.0182	-0.0723
C[C@@H](c1ccc2nccn2c1)n1nnc2ncc(-c3cnn(C)c3)nc21 [Savolitinib] + Cc1c2c(nn1C)CSCc1cc(n(C)n1)CSc1cc(c3ccccc3c1)OCCCc1c(C(=O)O)n(C)c3c-2c(Cl)ccc13 [AZD5991] (first compound max 1 µM, 7x7, partner max 1 µM)	0.976	-0.0608	-0.0517	0.0148	-0.0373	-0.0713		-0.0327	0.0369	-0.0331	-0.052	-0.0374	-0.0069	-0.0134	0.577	-0.0178	-0.0365	-0.0271	-0.0299	0.012
CS(=O)(=O)CCNCc1ccc(-c2ccc3ncnc(Nc4ccc(OCc5cccc(F)c5)c(Cl)c4)c3c2)o1 [Lapatinib] + C[C@@H](Oc1cc(-c2cnn(C3CCNCC3)c2)cnc1N)c1c(Cl)ccc(F)c1Cl [Crizotinib] (first compound max 10 µM, 7x7, partner max 10 µM)	0.965	-0.0389	-0.0386	-0.0511	0.0215	-0.0001		-0.0367	-0.102	-0.0666	0.0146	-0.0617	-0.0604	-0.028	0.934	-0.003	-0.0223	0.0087	-0.0565	0.074
NC1(C(=O)N[C@@H](CCO)c2ccc(Cl)cc2)CCN(c2ncnc3[nH]ccc23)CC1 [Capivasertib] + CC(=O)c1c(C)c2cnc(Nc3ccc(N4CCNCC4)cn3)nc2n(C2CCCC2)c1=O [Palbociclib] (first compound max 10 µM, 7x7, partner max 10 µM)	0.796	0.0176	-0.0346	0.0114	0.0437	-0.0442		-0.0098	0.0824	0.0245	0.0245	-0.0351	-0.0204	0.0388	0.904	-0.0096	-0.0282	-0.0456	0.0008	0.0307
C=CCn1c(=O)c2cnc(Nc3ccc(N4CCN(C)CC4)cc3)nc2n1-c1cccc(C(C)(C)O)n1 [AZD1775] + C1CN(CCC1(C(=O)N[C@@H](CCO)C2=CC=C(C=C2)Cl)N)C3=NC=NC4=C3C=CN4 [Capivasertib] (first compound max 3 µM, partner max 3 µM)	0.954	-0.0351	-0.0404	-0.0355	-0.0653	0.0244		-0.0349	0.0157	-0.0169	0.0591	-0.018	-0.0746	-0.018	0.963	-0.0443	0.0797	-0.0318	-0.0209	-0.0117
Cn1cnc2c(F)c(Nc3ccc(Br)cc3Cl)c(C(=O)NOCCO)cc21 [Selumetinib] + C=CCn1c(=O)c2cnc(Nc3ccc(N4CCN(C)CC4)cc3)nc2n1-c1cccc(C(C)(C)O)n1 [AZD1775] (first compound max 10 µM, partner max 1 µM)	0.875	-0.106	-0.0632	-0.0127	0.0338	-0.0174		-0.0005	-0.196	-0.0543	0.0018	-0.0033	-0.0478	-0.0475	0.587	0.036	-0.0495	-0.0393	0.0334	-0.0044
